Data taken from US12291502B2, “Topoisomerase II-alpha inhibitors and methods of treating cancer using the same” (The Regents of the University of Colorado, priority 2019, dated 2025).
Several values for one entry are separate records, joined by “and”; a condition that tells them apart may be missing. Identical values can stand only once. Like-named read-outs stand apart in the source and are kept apart here.

Key:
Human TOP2A = biological target: T1, Human TOP2A (Homo sapiens, UniProt P11388); assay: TOP2A DNA decatenation assay (kDNA, agarose gel); type: biochemical; settings: for inhibition at 30 µM: 1 h, decatenation, 30 μM fixed concentration, read-out: % Inhibition TOP2A (30 μM); for IC50: decatenation dose response
T1 construct: purchased TopoGEN (Buena Vista, CO)
T1 sequence (P11388 whole entry): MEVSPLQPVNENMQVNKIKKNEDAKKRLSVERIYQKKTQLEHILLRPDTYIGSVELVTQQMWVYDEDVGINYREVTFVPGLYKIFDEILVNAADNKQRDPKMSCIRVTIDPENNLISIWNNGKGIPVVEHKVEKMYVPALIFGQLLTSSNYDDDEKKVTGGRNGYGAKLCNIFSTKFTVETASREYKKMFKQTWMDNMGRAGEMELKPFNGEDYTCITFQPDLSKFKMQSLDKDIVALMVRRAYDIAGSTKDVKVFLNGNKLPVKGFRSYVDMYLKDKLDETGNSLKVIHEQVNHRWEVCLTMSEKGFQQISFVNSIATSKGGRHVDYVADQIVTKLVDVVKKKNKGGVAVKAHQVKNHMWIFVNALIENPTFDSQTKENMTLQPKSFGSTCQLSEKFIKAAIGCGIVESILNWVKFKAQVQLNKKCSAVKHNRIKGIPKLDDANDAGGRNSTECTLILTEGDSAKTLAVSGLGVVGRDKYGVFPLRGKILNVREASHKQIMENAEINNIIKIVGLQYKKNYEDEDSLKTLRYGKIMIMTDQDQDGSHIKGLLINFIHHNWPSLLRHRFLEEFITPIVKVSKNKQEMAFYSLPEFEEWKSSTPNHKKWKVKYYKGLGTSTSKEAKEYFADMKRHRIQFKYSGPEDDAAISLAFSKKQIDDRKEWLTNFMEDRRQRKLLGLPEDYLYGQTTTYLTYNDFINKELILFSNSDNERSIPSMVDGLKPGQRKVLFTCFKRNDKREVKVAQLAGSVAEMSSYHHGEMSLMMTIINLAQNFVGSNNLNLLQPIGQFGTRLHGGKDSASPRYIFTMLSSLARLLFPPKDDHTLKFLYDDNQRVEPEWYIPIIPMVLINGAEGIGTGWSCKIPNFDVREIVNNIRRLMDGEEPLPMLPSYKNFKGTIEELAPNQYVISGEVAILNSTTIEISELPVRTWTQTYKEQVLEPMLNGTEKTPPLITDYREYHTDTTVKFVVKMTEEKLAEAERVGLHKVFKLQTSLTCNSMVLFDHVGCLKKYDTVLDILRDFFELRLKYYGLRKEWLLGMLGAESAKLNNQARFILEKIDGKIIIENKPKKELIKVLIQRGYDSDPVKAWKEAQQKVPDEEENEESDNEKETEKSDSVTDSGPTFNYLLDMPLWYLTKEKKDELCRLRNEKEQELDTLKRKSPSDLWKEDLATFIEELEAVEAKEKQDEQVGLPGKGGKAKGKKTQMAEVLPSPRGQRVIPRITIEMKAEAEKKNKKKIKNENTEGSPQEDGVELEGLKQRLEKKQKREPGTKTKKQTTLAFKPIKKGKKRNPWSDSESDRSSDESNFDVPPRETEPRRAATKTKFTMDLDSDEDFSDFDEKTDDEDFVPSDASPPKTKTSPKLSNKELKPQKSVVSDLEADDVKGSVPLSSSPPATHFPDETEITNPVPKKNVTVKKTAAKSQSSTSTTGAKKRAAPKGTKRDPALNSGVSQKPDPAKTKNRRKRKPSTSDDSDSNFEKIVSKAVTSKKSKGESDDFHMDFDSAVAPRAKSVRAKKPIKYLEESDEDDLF
Description: Inhibition of TOP2A activity. Human TOP2A, kDNA, and assay buffers were obtained from TopoGEN (Buena Vista, CO). The synthesized compounds were screened for their TOP2A inhibitory activity by the intensity of DNA decatenation bands on a DNA gel when compared to the vehicle. Compounds were initially incubated with TOP2A (3 U/reaction) for 20 min at a 30 μM and 1.2% DMSO concentration in a 37° C. incubator without CO2.
The decatenation reaction was initiated immediately after by adding 2 mM ATP and 35 ng/reaction of kDNA, then incubated for 1 hour in a 37° C. water bath. The samples were loaded into a 0.8% agarose gel in 1× Tris-Borate-EDTA (TBE) at a 0.2 μg/mL ethidium bromide concentration and allowed to run in an electrophoretic chamber for 1 hour at 100V. Compounds with the highest inhibitory activity were selected for 2-fold serial dilution dose-response assays (58.6 nM-30 μM). The dose-response assays followed the same protocol with the exception of 4 U/reaction of TOP2A.
Inhibition studies of TOP2A and observed structure activity relationships (SAR). DNA catenation/decatenation or linking/unlinking of DNA is one of the main TOP2A functions essential for regulating DNA topology, and this is ATP dependent. […] Thus, as a starting point, the synthesized analogs were screened against TOP2A-dependent decatenation using 30 μM fixed concentrations, and the DNA from reactions were resolved on 0.8% agarose gels containing ethidium bromide.
Moreover, these studies provided interesting SAR, which shed light on the potential lead drug target binding interactions and affinity, biological activity, and future drug design optimization with this unique class of TOP2A inhibitors.
(§1) TOP2A decatenation assay. Human TOP2A, kDNA, and assay buffers were obtained from TopoGEN (Buena Vista, CO). The synthesized compounds were screened for their TOP2A inhibitory activity by the intensity of DNA decatenation bands on a DNA gel when compared to the vehicle. Compounds were initially incubated with TOP2A (3 U/reaction) for 20 min at a 30 μM and 1.2% DMSO concentration in a 37° C. incubator without CO2. The decatenation reaction was initiated immediately after by adding 2 mM ATP and 35 ng/reaction of kDNA, then incubated for 1 h in a 37° C. water bath. The samples were loaded into a 0.8% agarose gel in 1× Tris-Borate-EDTA (TBE) at a 0.2 μg/mL ethidium bromide concentration and allowed to run in an electrophoretic chamber for 1 h at 100V. Compounds with the highest inhibitory activity were selected for 2-fold serial dilution dose-response assays (58.6 nM-30 μM). The dose-response assays followed the same protocol with the exception of 4 U/reaction of TOP2A,
as §1, with “assays (53.6” for “assays (58.6”, “of TOP2A.” for “of TOP2A,”

[1] = Water solubility (stated); type: physicochemical
[2] = test system: TOP2A-dependent TCF-transcription in SW620-TOP tumor organoids; assay: TCF (TOPflash) reporter assay in 3D tumor organoids; type: cell-based; settings: SW620-TOP tumor organoids, 72 hours; read-out: IC50 inhibition of TCF-transcription
Description: TCF reporter assay in 3D Tumor organoid. Stable engineered cells containing pCDH-TOPflash-luc-EF1-puro were used to generate tumor organoid arrayed in 96-well plates and treated for 72 hours. One-Glo™ luciferase reagent and CellTiter-Glo™ 3D cell viability reagent (Promega) were used to determine the TCF reporter activity in viable cells.
After characterizing 3 and 7 as TOP2A ATP-competitive inhibitors, these compounds were next tested for their ability to inhibit TOP2A-dependent TCF-transcription using the well characterized TOPflash (TOP) luminescent reporter, which was used to generate a stably transduced SW620-TOP reporter cells as described previously (Zhou, et al., Oncogene 2016, 35:4990-9). These cells were used to generate single 3D tumor organoids (700 μm in diameter) uniformly arrayed in 96-well plates, which mimic aspects of tumor function observed in vivo. […] Like neo, the mode of action of compounds 3 and 7 also results in significant antitumor activity (FIGS. 3E-3H). […] In other words, the activity of 3 and 7 is long lasting, suppressing CSC stemness and related tumorigenicity. EMT is a major driving force promoting tumor cell invasion and metastasis. […] Tumor organoids were dissociated, and viable cells were washed and plated into the top chamber of 96-well invasion plate coated with Matrigel and incubated for an additional 72 hours without adding any additional compound. […] Taken together, the biological activity of 3 and 7 is consistent with the activity of neo, inhibiting TOP2A-dependent TCF-transcription that in turn reverses EMT while inhibiting the associated tumorigenic properties of mCRC.
A similar trend in IC50 values was observed compared to TOP2A enzyme studies, further supporting our proposed mechanism of action as inhibition of TOP2A-dependent TCF-transcription.
3D Tumor organoid TOPflash reporter assay. […] 35(38): p. 4990-9.] were used to generate tumor organoids arrayed in 96-well plates and treated for 72 h with TOP2A inhibitors. One-Glo™ luciferase reagent and CellTiter-Glo™ 3D cell viability reagent (Promega, WI) were used to determine the TCF reporter activity in viable cells. Briefly, reagents were added to the spheroids at 1:1 ratio (v:v) and the plates were placed on an orbital shaker (300 rpm) for 10 min at room temperature before the luminescence was read with Envision plate reader (PerkinElmer, MA). TCF reporter activity was normalized to organoid viability and inhibitors treated conditions were normalized to DMSO treated controls.

SW620 tumor organoids = assay: Tumor organoid cytotoxicity / 3D cell viability (CellTox Green); type: cell-based; settings: Homo sapiens, SW-620, Table 2, 72 hours
Description: Tumor organoid cytotoxicity. Fluorescence image-based method: The CellTox™ Green assay (Promega, Madison, WI, USA) was used with 3D tumor organoid to measure spheroid death. 0.1% CellTox™ Green was included in each well at the time of analogs dosing. 10% lysis solution was used as a cell death control. Fluorescence was measured at various time points with 465-510 nm excitation and 520-530 nm emission. Luminescence plate reader method: A 1:1 ratio of CellTiter-Glo™ 3D reagent (Promega) was added to 3D tumor organoid and the plate was shaken at 400 rpm for 30 min before luminescence was read with a PerkinElmer Envision plate reader.
Finally, SW620 tumor organoid cytotoxicity experiments were conducted using the CellTox Green assay, a fluorescence image-based method, to determine whether the inhibition of TCF transcription and effects on EMT are not the result of cytotoxicity. […] All of the analogs tested display IC50 dose response >30 μM and were higher compared to the IC50 values obtained during the downregulation of TCF transcription activity, and the EC50 values obtained for EMT modulation. Thus, the biological effects on TCF-transcription and EMT are not a result of tumor organoid cell death.
(§2) Tumor organoid cytotoxicity. SW620 tumor organoids were grown as previously outlined. CellTox™ Green-Express Cytotoxicity Assay (Promega, WI) solution was prepared per manufacturer's protocol. Briefly, organoids were treated for 72 h with CellTox™ Green Express (0.5×) reagent and various doses of TOP2A inhibitors over a range of 0-to-40 μM. Organoids were then imaged using the Opera Phenix HCS system (PerkinElmer, MA). CellTox™ Green Express was excited at 488 nm and emission was detected at 500-550 nm. Mean intensity of the whole well was utilized for calculating cytotoxicity with Lysis Buffer (Promega, WI, 0.025×) as the 0% viability control and 0.4% DMSO as the 100% viability control. Intensity values were normalized to these controls using GraphPad Prism 7.0 (GraphPad, CA).
as §2, with “CellTox™-Green-Express” for “CellTox™ Green-Express”, “(GraphPad.” for “(GraphPad,”

[3] = Table 1, read-out: % Inhibition TOP2A (IC50 Values)
[4] = read-out: IC50 TOP2A inhibition

Structure (SMILES)	inhibition at 30 µM (Human TOP2A; Table 1) [%]	IC50 (Human TOP2A; [3]) [µM]	IC50 (Human TOP2A; [4])	fold less potent compared to 53 (TOP2A IC50) (Human TOP2A; ratio of TOP2A IC50 values) [fold]	water solubility, in words [1]	IC50 [2] [µM]	TOP2A inhibition, result in words (Human TOP2A; decatenation screen at 30 μM)	IC50 (SW620 tumor organoids) [µM]
O=C(CCN1CCOCC1)Nc1ccc2c(-c3cc4ccccc4o3)ccnc2c1O [Analog 61]	83	4.1	4 µM	20	maintains water solubility	–	–	–
CC(=O)Nc1ccc2c(-c3cccs3)ccnc2c1O [Analog 57]	100	2.3	–	–	–	7	–	–
CC(=O)Nc1ccc2c(-c3cc4ccccc4o3)ccnc2c1O [Analog 53]	100	–	0.24 µM and 0.2 µM	–	–	–	complete inhibitory activity against TOP2A	> 30
